Data reported in patent publication US9655904B2, “Substituted benzoazepines as toll-like receptor modulators” (VentiRx Pharmaceuticals, Inc., priority 2009, dated 2017).

Key:
Format in all cases: cell-based
[1] = molecular target: T1, TLR8 (Homo sapiens, UniProt Q9NR97); assay: MC50 values for TLR8 activity (test not specified; procedures of Gorden et al. and Zhu et al.)
T1 sequence (Q9NR97 27-1041): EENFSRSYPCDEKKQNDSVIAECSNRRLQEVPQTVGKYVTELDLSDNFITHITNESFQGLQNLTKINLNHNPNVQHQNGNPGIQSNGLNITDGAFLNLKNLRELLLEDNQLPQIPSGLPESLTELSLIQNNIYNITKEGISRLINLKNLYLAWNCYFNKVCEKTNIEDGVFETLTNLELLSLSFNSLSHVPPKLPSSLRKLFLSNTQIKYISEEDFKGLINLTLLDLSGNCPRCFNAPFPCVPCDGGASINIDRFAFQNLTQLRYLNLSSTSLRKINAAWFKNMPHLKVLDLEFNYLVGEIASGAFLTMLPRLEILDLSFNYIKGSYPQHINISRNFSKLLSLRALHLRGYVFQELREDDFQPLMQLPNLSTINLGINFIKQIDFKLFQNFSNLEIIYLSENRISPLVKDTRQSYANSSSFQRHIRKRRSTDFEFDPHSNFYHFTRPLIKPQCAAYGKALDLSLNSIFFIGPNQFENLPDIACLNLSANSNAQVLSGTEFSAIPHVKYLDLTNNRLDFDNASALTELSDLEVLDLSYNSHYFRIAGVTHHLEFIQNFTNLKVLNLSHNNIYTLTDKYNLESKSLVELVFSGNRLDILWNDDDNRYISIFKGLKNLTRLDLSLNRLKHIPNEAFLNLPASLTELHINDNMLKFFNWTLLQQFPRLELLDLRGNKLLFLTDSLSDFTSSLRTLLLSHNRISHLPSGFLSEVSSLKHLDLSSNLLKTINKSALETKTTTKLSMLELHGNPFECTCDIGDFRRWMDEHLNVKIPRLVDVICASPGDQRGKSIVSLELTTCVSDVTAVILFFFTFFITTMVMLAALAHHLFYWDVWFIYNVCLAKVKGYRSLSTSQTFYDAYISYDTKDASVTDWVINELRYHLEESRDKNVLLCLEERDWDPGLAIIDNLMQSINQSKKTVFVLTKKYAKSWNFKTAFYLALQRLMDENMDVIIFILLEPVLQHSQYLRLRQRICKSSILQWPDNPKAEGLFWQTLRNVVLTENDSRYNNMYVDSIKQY
Source text: (§1) Activity of the compounds can be assessed according to procedures described in, e.g., Gorden et al., Journal of Immunology 177, pp. 8164-8170 (2006) and Zhu et al., Molecular Immunology, vol. 45 (11), pp. 3238-3242 (2008).
MC50 values for TLR8 activity are, for example, as shown below: […]

[2] = molecular target: T2, TLR7 (Homo sapiens, UniProt Q9NYK1); assay: PBMC assay for TLR7 (IFNα in supernatants by ELISA); design: Peripheral blood mononuclear cells (PBMCs) from human blood were isolated; endogenous in cells; host or cells: human PBMCs; details: human PBMCs incubated with compound overnight, MC50 = concentration at which 50% of maximum induction is seen
T2 sequence (Q9NYK1 27-1049): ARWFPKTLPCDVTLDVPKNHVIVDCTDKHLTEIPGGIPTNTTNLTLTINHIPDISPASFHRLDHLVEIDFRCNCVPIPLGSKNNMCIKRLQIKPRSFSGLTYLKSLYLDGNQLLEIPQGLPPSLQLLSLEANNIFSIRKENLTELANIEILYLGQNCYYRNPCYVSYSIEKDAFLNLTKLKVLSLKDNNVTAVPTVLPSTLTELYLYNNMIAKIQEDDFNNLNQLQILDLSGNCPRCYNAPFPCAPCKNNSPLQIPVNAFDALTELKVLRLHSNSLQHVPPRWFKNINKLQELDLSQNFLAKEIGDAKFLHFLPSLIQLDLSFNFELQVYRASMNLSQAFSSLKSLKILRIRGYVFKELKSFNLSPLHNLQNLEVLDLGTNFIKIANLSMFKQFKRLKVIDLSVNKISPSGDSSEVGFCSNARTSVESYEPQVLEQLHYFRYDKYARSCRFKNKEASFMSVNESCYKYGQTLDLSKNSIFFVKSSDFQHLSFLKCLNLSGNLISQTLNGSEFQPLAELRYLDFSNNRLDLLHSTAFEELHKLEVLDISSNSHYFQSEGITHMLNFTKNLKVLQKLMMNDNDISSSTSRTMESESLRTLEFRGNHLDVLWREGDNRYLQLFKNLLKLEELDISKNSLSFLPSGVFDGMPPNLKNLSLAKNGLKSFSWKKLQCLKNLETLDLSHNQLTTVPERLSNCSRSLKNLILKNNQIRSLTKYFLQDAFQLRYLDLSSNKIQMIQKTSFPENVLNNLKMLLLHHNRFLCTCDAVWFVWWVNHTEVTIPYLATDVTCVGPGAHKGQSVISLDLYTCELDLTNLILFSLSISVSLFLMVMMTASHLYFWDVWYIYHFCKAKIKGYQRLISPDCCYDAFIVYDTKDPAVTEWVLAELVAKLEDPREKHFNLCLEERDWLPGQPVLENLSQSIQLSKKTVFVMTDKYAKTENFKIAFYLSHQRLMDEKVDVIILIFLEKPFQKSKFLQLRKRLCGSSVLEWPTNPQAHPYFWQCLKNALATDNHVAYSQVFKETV
Procedure: (§2) Peripheral blood mononuclear cells (PBMCs) from human blood were isolated using BD Vacutainer Cell Preparation Tubes with sodium citrate. Cells were incubated with compound overnight. TLR8 activity was assayed by measuring the amount of TNFα in supernatants by ELISA. TLR7 activity was assayed by measuring the amount of IFNα in supernatants by ELISA (R&D Systems). […] The results of this assay are shown below in Tables 2 and 3.
(§3) MC50 numbers are represented as factors of ten, for example, + indicates an MC50 value of X 10^4, or a value in the tens of thousands of nanomolar (nM range); ++ indicates an MC50 value of X 10^3, or a value in the thousands; +++ indicates an MC50 value of X 10^2, or a value in the hundreds; and ++++ indicates an MC50 value of X 10^1 or 10^0, or a value in the tens or ones.

[3] = molecular target: T1, TLR8; assay: PBMC assay for TLR8 (TNFα in supernatants by ELISA); design: Peripheral blood mononuclear cells (PBMCs) from human blood were isolated; endogenous in cells; host or cells: human PBMCs; details: human PBMCs incubated with compound overnight, MC50 = concentration at which 50% of maximum induction is seen
Procedure: as §2, §3

[4] = molecular target: T2, TLR7; assay: MC50 values for TLR7 activity (test not specified; procedures of Gorden et al. and Zhu et al.)
Source text: as §1
MC50 values for TLR7 activity are, for example, as shown below: […]

| EC50 [1] | EC50 [2] | EC50 [3] | EC50 [4] | Structure (SMILES) |
| --- | --- | --- | --- | --- |
| 0.033 µM | 0.1 to 1 µM | 0.001 to 0.1 µM | 0.358 µM | CCCN(CCCO)C(=O)C1=Cc2ccc(-c3ccc4c(c3)C(=O)OC4)cc2N=C(N)C1 [Compound 222, (1E,4E)-2-Amino-N-(3-hydroxypropyl)-8-((3-oxo-1,3-dihydroisobenzofuran-5-yl)-N-propyl-3H-benzo[b]azepine-4-carboxamide] |
| 0.195 µM | 1 to 10 µM | 0.1 to 1 µM |  | CCCN(CCC)C(=O)C1=Cc2ccc(-c3ccc(C4CCOC4=O)cc3)cc2N=C(N)C1 (stereo not shown) [Compound 223, (1E,4E)-2-Amino-8-(4-(2-oxotetrahydrofuran-3-yl)phenyl)-N,N-dipropyl-3H-benzo[b]azepine-4-carboxamide] |
| 0.363 µM | 10 to 100 µM | 0.1 to 1 µM |  | CCCN(CCC)C(=O)C1=Cc2ccc(-c3ccc(C(O)CO)cc3)cc2N=C(N)C1 (stereo not shown) [Compound 224, (1E,4E)-2-amino-8-(4-(1,2-dihydroxyethyl)phenyl)-N,N-dipropyl-3H-benzo[b]azepine-4-carboxamide] |
|  | 10 to 100 µM | 0.1 to 1 µM |  | CCCN(CCC)C(=O)C1=Cc2ccc(-c3ccc(C4COC(=O)O4)cc3)cc2N=C(N)C1 (stereo not shown) [Compound 225, (1E,4E)-2-amino-8-(4-(2-oxo-1,3-dioxolan-4-yl)phenyl)-N,N-dipropyl-3H-benzo[b]azepine-4-carboxamide] |

Further lines, the compound ahead of its results:

| Structure (SMILES) | EC50 [1] | EC50 [2] | EC50 [3] | EC50 [4] |
| --- | --- | --- | --- | --- |
| CCCN(CCC)C(=O)C1=Cc2ccc(-c3cncc(CO)c3)cc2N=C(N)C1 [Compound 183, (1E,4E)-2-amino-8-(5-(hydroxymethyl)pyridin-3-yl)-N,N-dipropyl-3H-benzo[b]azepine-4-carboxamide] | 0.008 µM | 1 to 10 µM | 0.001 to 0.1 µM |  |
| CCOC(=O)C1=Cc2ccc(-c3cncc(CO)c3)cc2N=C(N)C1 [Compound 199, (1E,4E)-ethyl 2-amino-8-(5-(hydroxymethyl)pyridin-3-yl)-3H-benzo[b]azepine-4-carboxylate] |  | 1 to 10 µM | 0.001 to 0.1 µM |  |
| CCCN(CCCO)C(=O)C1=Cc2ccc(-c3ccc(CC(=O)OC)cc3)cc2N=C(N)C1 [Compound 213, Methyl 2-(4-((1E,4E)-2-amino-4-((3-hydroxypropyl)(propyl)carbamoyl)-3H-benzo[b]azepin-8-yl)phenyl)acetate] |  | 1 to 10 µM | 0.1 to 1 µM |  |
| CCCN(CCCO)C(=O)C1=Cc2ccc(-c3ccc(CC(=O)OCC)cc3)cc2N=C(N)C1 [Compound 214, Ethyl 2-(4-((1E,4E)-2-amino-4-((3-hydroxypropyl)(propyl)carbamoyl)-3H-benzo[b]azepin-8-yl)phenyl)acetate] | 0.054 µM | 1 to 10 µM | 0.001 to 0.1 µM |  |
| CCCN(CCCO)C(=O)C1=Cc2ccc(-c3ccc(CC(=O)OC(C)C)cc3)cc2N=C(N)C1 [Compound 215, Isopropyl 2-(4-((1E,4E)-2-amino-4-((3-hydroxypropyl)(propyl)carbamoyl)-3H-benzo[b]azepin-8-yl)phenyl)acetate] |  | 10 to 100 µM | 0.001 to 0.1 µM |  |
| CCCN(CCCO)C(=O)C1=Cc2ccc(-c3ccc(CC(=O)OCC(C)C)cc3)cc2N=C(N)C1 [Compound 216, Isobutyl 2-(4-((1E,4E)-2-amino-4-((3-hydroxypropyl)(propyl)carbamoyl)-3H-benzo[b]azepin-8-yl)phenyl)acetate] |  | 10 to 100 µM | 0.001 to 0.1 µM |  |
| CCCN(CCCO)C(=O)C1=Cc2ccc(-c3ccc(CCC(=O)OCC(C)C)cc3)cc2N=C(N)C1 [Compound 219, Isobutyl 3-(4-((1E,4E)-2-amino-4-((3-hydroxypropyl)(propyl)carbamoyl)-3H-benzo[b]azepin-8-yl)phenyl)propanoate] |  | 1 to 10 µM | 1 to 10 µM |  |
